Consider six compounds from patent US12466840B2, “Small molecule inhibitors of KRAS proteins” (Merck Sharp & Dohme LLC, priority 2023, dated 2025).

One series deals with KRAS WT (Homo sapiens (Human), UniProt P01116). In words: SOS-catalyzed nucleotide exchange assay (GNE), KRAS WT. It is filed as biochemical. As to conditions: TR-FRET, 60 min preincubation. An excerpt:
(§1) Procedure for SOS-Catalyzed Nucleotide Exchange Assay for KRAS-WT, G12C/D/V/A/R/S, G13D, Q61H, HRAS-WT, and NRAS-WT
(§2) Recombinant KRAS-G12C protein used in this assay has an additional triple mutation (C51S/C80L/C118S). Whereas KRAS-WT, G12D/V/A/S/R, G13D, Q61H, HRAS and NRAS are in context of their WT protein sequence background. Specifically, the SOS-catalyzed nucleotide exchange assay utilizes a preformed TR-FRET complex containing a specific biotinylated RAS protein (KRAS-WT, G12C/V/D/A/S/R, G13D, Q61H, HRAS-WT, NRAS-WT; described above) with Bodipy-GDP, and Terbium-streptavidin. Compounds are preincubated with this complex for 60 minutes. Subsequently, recombinant human SOS protein and unlabeled GTP are added to initiate the exchange reaction. Small molecule inhibitors stabilize the Bodipy-GDP complex whereas the untreated protein rapidly exchanges Bodipy-GDP for unlabeled GTP resulting in reduced TR-FRET signal.
(§3) To assemble the preformed TR-FRET complexes, each biotinylated RAS protein is diluted to 2 μM in an EDTA Buffer (20 mM HEPES pH 7.5, 50 mM sodium chloride, 10 mM EDTA, and 0.01% Tween) and incubated at room temperature for one hour. This mixture is then further diluted to 90 nM in an Assay Buffer (20 mM HEPES pH 7.5, 150 mM sodium chloride, 10 mM magnesium chloride, and 0.005% Tween) containing 15 nM of Terbium-Streptavidin (Invitrogen, catalog #PV3577) and 900 nM of Bodipy-GDP (Invitrogen, catalog #G22360) and incubated at room temperature for six hours. It should be noted that this preformed TR-FRET complex for each of the RAS protein were made ahead of time, aliquoted and stored at −80° C. until the day of the experiment.
(§4) Each test compound (10 mM stock in DMSO) is diluted in DMSO to make a final-10-point, 3-fold dilution and is acoustically dispensed into a 384-well assay plate (Corning, catalog #3820) using an Echo 550 (Labcyte). Each well of the assay plate receives 3 μL of a specific 3×RAS preformed TR-FRET complex and 3 μL of Assay Buffer and is incubated at room temperature for 60 minutes (preincubation time). Each well then receives 3 μL of 3× recombinant human SOS protein and GTP (Sigma, G8877) in Assay Buffer and is incubated at room temperature for 30 minutes (G13D), 60 minutes (KRAS WT/G12C/D, H/NRAS) or 90 minutes for G12A/R/S/V and Q61H. The final reaction in each well of 9 μL consists of 3 mM GTP, specific Ras and SOS proteins in the following concentrations: KRAS-G12C/SOS=3 nM/40 nM, KRAS-WT and G12D/SOS=1 nM/40 nM, KRAS-G12V/SOS=1.25 nM/160 nM, KRAS-G12A/S/SOS=1 nM/160 nM, KRAS-G12R/SOS=1 nM/320 nM, KRAS-Q61H/SOS=1 nM/320 nM, KRAS-G13D/SOS=1.25 nM/[…], HRAS-WT and NRAS-WT=1.25 nM/40 nM.
(§5) The time-resolved fluorescence resonance energy transfer (TR-FRET) signal is measured on an Envision (PerkinElmer) plate reader: Excitation filter=340 nm; emission1=495 nm; emission2=520 nm; dichroic mirror=D400/D505; delay time=[…]. The signal of each well is determined as the ratio of the emission at 520 nm to that at 495 nm. Percent effect of each well is determined after normalization to control wells containing DMSO (no effect) or a saturating concentration of inhibitor (max effect). The apparent effect as a function of compound concentration is fit to a four-parameter logistic equation.

For another series, the target named is KRAS G12C (Homo sapiens (Human), UniProt P01116, C118S/C51S/C80L/G12C). In words: SOS-catalyzed nucleotide exchange assay (GNE), KRAS G12C. Format: biochemical. As to conditions: TR-FRET, 60 min preincubation; protein with C51S/C80L/C118S.
Excerpt: as §1, §2, §3, §4, §5

Another series deals with KRAS G12S (Homo sapiens (Human), UniProt P01116, G12S). In words: SOS-catalyzed nucleotide exchange assay (GNE), KRAS G12S. Format: biochemical. As to conditions: TR-FRET, 60 min preincubation.
Excerpt: as §1, §2, §3, §4, §5
Background: Time-resolved FRET reads energy transfer from a long-lived donor to a nearby acceptor.

A short description of series [1]: Rat IV/PO pharmacokinetic studies. It is filed as in vivo. How it is done: Procedure for Rat IV/PO Pharmacokinetic Studies
Plasma pharmacokinetic parameters for clearance, volume of distribution, half-life and oral bioavailability were determined in rats from oral administration and IV administration studies. 4 male rats, typically weighing 225-260 g, were fasted overnight prior to dosing. IV formulation was administered to 2 rats via pre-cannulated jugular vein, and oral dosing was administered to 2 rats via oral gavage. Blood was collected by pre-cannulated artery, typically at predose, 2, 8, 15, 30 min, 1, 2, 4, 6, and 8 hr postdose for IV, and at predose, 15, 30 min, 1, 2, 4, 6, 8 h for oral dosing. Samples were collected in K2EDTA tubes, stored on ice, and centrifuged. Plasma was transferred to a micro titer plate and stored at −70° C. until analysis. Plasma samples were extracted using protein precipitation and analyzed by liquid chromatography separation followed by mass spec detection (LC-MS/MS), using a standard curve for each compound. Plasma pharmacokinetic parameters were calculated for IV and oral dosing data by non-compartmental methods. Oral bioavailability was determined as the ratio of the dose-normalized plasma area under the curve (AUC) following oral dosing vs. IV dosing.

Series [2] is described as follows: Dog IV/PO pharmacokinetic studies. Format: in vivo. How it is done:
Procedure for Dog IV/PO Pharmacokinetic Studies
Plasma pharmacokinetic parameters for clearance, volume of distribution, half-life, mean residence time (MRT) and oral bioavailability were determined in dogs from oral administration and IV administration studies. 4 male dogs, typically weighing 8-12 kg, were fasted overnight prior to dosing. IV formulation was administered to 2 dogs via the saphenous or cephalic vein, and oral dosing was administered to 2 dogs via oral gavage. Blood was collected by the cephalic or jugular vein, typically at predose, 2, 8, 15, 30 min, 1, 2, 4, 6, 8 and 24 h postdose for IV, and at predose, 15, 30 min, 1, 2, 4, 6, 8, and 24 hr for oral dosing. Samples were collected in K2EDTA tubes, stored on ice, and centrifuged. Plasma was transferred to a micro titer plate and stored at −70° C. until analysis. Plasma samples were extracted using protein precipitation and analyzed by liquid chromatography separation followed by mass spec detection (LC-MS/MS), using a standard curve for each compound. Plasma pharmacokinetic parameters were calculated for IV and oral dosing data by non-compartmental methods. Oral bioavailability was determined as the ratio of the dose-normalized plasma area under the curve (AUC) following oral dosing vs. IV dosing.

[3] abbreviates: oral bioavailability, PO 2 mg/kg vs. IV 1 mg/kg.
Where [4] appears, read: oral bioavailability, PO 0.5 mg/kg vs. IV.
[5] abbreviates: plasma, IV 0.25 mg/kg (Ex-2 0.05 mg/kg).

Sequence of KRAS WT (P01116 other isoform, or with tags, fused parts or gaps): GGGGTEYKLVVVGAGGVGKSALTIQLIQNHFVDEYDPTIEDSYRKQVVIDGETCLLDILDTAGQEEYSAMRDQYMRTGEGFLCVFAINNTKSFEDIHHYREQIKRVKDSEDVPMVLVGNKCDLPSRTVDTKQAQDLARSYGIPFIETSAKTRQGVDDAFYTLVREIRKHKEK
Sequence of KRAS G12C (P01116 other isoform, or with tags, fused parts or gaps, stated change not applied): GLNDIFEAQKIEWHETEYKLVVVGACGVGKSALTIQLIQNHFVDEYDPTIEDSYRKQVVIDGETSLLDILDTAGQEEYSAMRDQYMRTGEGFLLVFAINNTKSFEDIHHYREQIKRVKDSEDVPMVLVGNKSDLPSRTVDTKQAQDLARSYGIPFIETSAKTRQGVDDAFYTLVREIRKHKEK
Sequence of KRAS G12S (P01116 other isoform, or with tags, fused parts or gaps G12S (already in the parent)): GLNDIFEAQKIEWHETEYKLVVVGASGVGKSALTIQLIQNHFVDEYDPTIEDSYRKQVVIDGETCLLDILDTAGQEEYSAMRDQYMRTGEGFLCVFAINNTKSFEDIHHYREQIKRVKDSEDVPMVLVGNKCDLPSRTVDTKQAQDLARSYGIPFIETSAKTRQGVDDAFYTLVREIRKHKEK

Consider `F/C=C1/CN2CCC[C@@]2(COc2nc3c4c(nc(-c5c(C6CC6)c(Cl)cc6[nH]ncc56)c(F)c4n2)OC[C@@H]2COCCCN32)C1` [Ex-1, (8aS)-5-(6-chloro-5-cyclopropyl-1H-indazol-4-yl)-4-fluoro-2-(((S,Z)-2-(fluoromethylene)tetrahydro-1H-pyrrolizin-7a(5H)-yl)methoxy)-8a,9,12,13-tetrahydro-8H,11H-7,10-dioxa-1,3,6,13a-tetraazanaphtho[1,8-ab]heptalene], for which the IC50 against KRAS WT is 0.87 nM; at KRAS G12C it was 6.9 nM; on KRAS G12S it was less than 0.69 nM. In addition, the F % amounted to 11% in series [1] (setting [3]) and 17% in series [2] (setting [4]). Also, the CLp is on record as 24 mL/min/kg in series [1] (plasma, IV 1 mg/kg) and 5.0 mL/min/kg in series [2] (setting [5]). The mean residence time MRT is on record as 1.4 h in series [1] (plasma, IV 1 mg/kg) and 2.2 h in series [2] (setting [5]). The Vd in series [1] (plasma, IV 1 mg/kg) amounted to 2.0 L/kg; in series [2] (setting [5]) it was 0.65 L/kg.
For the compound `CCc1c(F)ccc2cc3[nH]ncc3c(-c3nc4c5c(nc(OC[C@@]67CCCN6C[C@H](F)C7)nc5c3F)N3CCCOC[C@H]3CO4)c12` [Ex-2, (8aS)-5-(5-ethyl-6-fluoro-1H-benzo[f]indazol-4-yl)-4-fluoro-2-(((2R,7aS)-2-fluorotetrahydro-1H-pyrrolizin-7a(5H)-yl)methoxy)-8a,9,12,13-tetrahydro-8H,11H-7,10-dioxa-1,3,6,13a-tetraazanaphtho[1,8-ab]heptalene], the figures for the half-maximal inhibitory concentration (IC50) against KRAS WT, against KRAS G12C and against KRAS G12S were 1.1 nM, 3.2 nM and less than 0.69 nM, respectively. The F % is recorded as 10% in series [1] (setting [3]) and 29% in series [2] (setting [4]). In addition, the CLp in series [1] (plasma, IV 1 mg/kg) was 40 mL/min/kg; in series [2] (setting [5]), 18 mL/min/kg. Further, the mean residence time MRT in series [1] (plasma, IV 1 mg/kg) was 2.5 h; in series [2] (setting [5]) it was 2.4 h. Moreover, the Vd in series [1] (plasma, IV 1 mg/kg) was found to be 6.1 L/kg; in series [2] (setting [5]), 2.6 L/kg.
At KRAS WT, `Fc1c(-c2c(C3CC3)c(Cl)cc3[nH]ncc23)nc2c3c(nc(OC[C@@]45CCCN4C[C@H](F)C5)nc13)N1CCCOC[C@H]1CO2` [Ex-3, (8aS)-5-(6-chloro-5-cyclopropyl-1H-indazol-4-yl)-4-fluoro-2-(((2R,7aS)-2-fluorotetrahydro-1H-pyrrolizin-7a(5H)-yl)methoxy)-8a,9,12,13-tetrahydro-8H,11H-7,10-dioxa-1,3,6,13a-tetraazanaphtho[1,8-ab]heptalene] yielded an IC50 of 2.5 nM. Moreover, the clearance is 40 mL/min/kg in series [1] (male, plasma, IV 1 mg/kg, read-out: CLp) and 10 mL/min/kg in series [2] (male, plasma, IV 0.25 mg/kg (Ex-2 0.05 mg/kg), read-out: CLp). The mean residence time (MRT) in series [1] (male, plasma, IV 1 mg/kg, read-out: MRT) came to 1.7 h; in series [2] (male, plasma, IV 0.25 mg/kg (Ex-2 0.05 mg/kg), read-out: MRT) it was 3.6 h. In addition, the Vd in series [1] (male, plasma, IV 1 mg/kg, read-out: Vd) amounted to 4 L/kg; in series [2] (male, plasma, IV 0.25 mg/kg (Ex-2 0.05 mg/kg), read-out: Vd) it was 2.2 L/kg. Besides, the bioavailability in series [1] (male, plasma, oral bioavailability, PO 2 mg/kg vs. IV 1 mg/kg) amounted to 7.5%; in series [2] (male, plasma, oral bioavailability, PO 0.5 mg/kg vs. IV), 15%.
As for `CCc1c(F)ccc2cc3[nH]ncc3c(-c3nc4c5c(nc(OC[C@@]67CCCN6C/C(=C\F)C7)nc5c3F)N3CCCOC[C@H]3CO4)c12` [Ex-4, (8aS)-5-(5-ethyl-6-fluoro-1H-benzo[f]indazol-4-yl)-4-fluoro-2-(((S,Z)-2-(fluoromethylene)tetrahydro-1H-pyrrolizin-7a(5H)-yl)methoxy)-8a,9,12,13-tetrahydro-8H,11H-7,10-dioxa-1,3,6,13a-tetraazanaphtho[1,8-ab]heptalene], the figures for the IC50 against KRAS WT, against KRAS G12C and against KRAS G12S were less than 0.69 nM, 2.9 nM and less than 0.69 nM, respectively.
Turning to `F/C=C1\CN2CCC[C@@]2(COc2nc3c4c(nc(-c5c(C6(F)CC6)c(Cl)cc6[nH]ncc56)c(F)c4n2)OC[C@@H]2COCCCN32)C1` [Ex-5, (8aS)-5-(6-chloro-5-(1-fluorocyclopropyl)-1H-indazol-4-yl)-4-fluoro-2-(((S,Z)-2-(fluoromethylene)tetrahydro-1H-pyrrolizin-7a(5H)-yl)methoxy)-8a,9,12,13-tetrahydro-8H,11H-7,10-dioxa-1,3,6,13a-tetraazanaphtho[1,8-ab]heptalene], the values for the IC50 at KRAS WT, on KRAS G12C and against KRAS G12S were less than 0.69 nM, 3.3 nM and 0.77 nM, respectively.
Turning to `CCc1c(F)ccc2cc3[nH]nc(C)c3c(-c3nc4c5c(nc(OC[C@@]67CCCN6C/C(=C\F)C7)nc5c3F)N3CCCOC[C@H]3CO4)c12` [Ex-7, (8aS)-5-(5-ethyl-6-fluoro-3-methyl-1H-benzo[f]indazol-4-yl)-4-fluoro-2-(((S,Z)-2-(fluoromethylene)tetrahydro-1H-pyrrolizin-7a(5H)-yl)methoxy)-8a,9,12,13-tetrahydro-8H,11H-7,10-dioxa-1,3,6,13a-tetraazanaphtho[1,8-ab]heptalene], at KRAS WT, the IC50 stood at 1.4 nM. The compound also had an IC50 against KRAS G12C of 11 nM. In addition, at KRAS G12S, half-maximal inhibition (IC50) required 1.3 nM. For the same compound, the F % in series [1] (setting [3]) was 15%. For the same compound, in series [1] (plasma, IV 1 mg/kg), the CLp is 35 mL/min/kg, the mean residence time MRT is given as 1.9 h and the Vd stood at 4.0 L/kg.

A word on the IC50: it is the concentration needed to halve the response being measured. The term MRT denotes the average time that molecules of a dose stay in the body. Broadly, the bioavailability is dose-corrected exposure relative to a reference, in per cent. Read a low bioavailability as poor availability.
